Where two headings read alike, the source gives them in different places.

We go through 19 compounds from patent US10745382B2 (BRISTOL-MYERS SQUIBB COMPANY, priority 2015, dated 2020).

This test deals with T1, PD-1/PD-L1 (Homo sapiens, UniProt Q9NZQ7).
T1 construct: made in house; host or cells: HEK293T
The experiment in a line: PD-1/PD-L1 Homogenous Time-Resolved Fluorescence (HTRF) binding assay. Particulars: PD-L1-His 10 nM, PD-1-Ig 20 nM, read-out: Range or IC50. In short, it runs like this: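 Read-out is time-resolved FRET between europium cryptate-labelled anti-Ig (1 nM final) and APC-labelled anti-His (20 nM final), both dispensed onto the binding mix. Assay buffer: dPBS containing 0.1% bovine serum albumin and 0.05% Tween-20.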

T1 sequence (Q9NZQ7 with tags, fused parts or gaps): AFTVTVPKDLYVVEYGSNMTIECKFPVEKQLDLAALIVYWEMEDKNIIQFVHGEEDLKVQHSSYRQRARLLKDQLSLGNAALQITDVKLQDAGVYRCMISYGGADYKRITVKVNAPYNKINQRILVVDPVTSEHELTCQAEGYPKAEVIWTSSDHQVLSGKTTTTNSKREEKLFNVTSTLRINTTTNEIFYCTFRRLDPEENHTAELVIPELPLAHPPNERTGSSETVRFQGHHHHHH

Usually IC50 stands for the concentration that gives 50% inhibition. Regarding `Cc1cc(OCCCCN2CC[C@@H](O)C2)ccc1-c1cccc(COc2cc(OCc3cncc(C#N)c3)c(CN[C@H](CO)C(=O)O)cc2Cl)c1C` [Example 1092, (5-chloro-2-((5-cyanopyridin-3-yl)methoxy)-4-((4′-(4-((R)-3-hydroxypyrrolidin-1-yl)butoxy)-2,2′-dimethyl-[1,1′-biphenyl]-3-yl)methoxy)benzyl)-D-serine], for the setting “value given as range class”, the IC50 fell in the range of 0.21 to 10 nM.

As for `Cc1cc(OCCCCN2CC[C@@H](O)C2)ccc1-c1cccc(COc2cc(OCc3cncc(C#N)c3)c(CN3CCCC[C@H]3C(=O)O)cc2Cl)c1C` [Example 1093, (S)-1-(5-chloro-2-((5-cyanopyridin-3-yl)methoxy)-4-((4′-(4-((R)-3-hydroxypyrrolidin-1-yl)butoxy)-2,2′-dimethyl-[1,1′-biphenyl]-3-yl)methoxy)benzyl)piperidine-2-carboxylic Acid], the IC50 (value given as range class) was 0.21 to 10 nM.

As for `Cc1c(COc2cc(OCc3cncc(C(N)=O)c3)c(CN[C@](C)(CO)C(=O)O)cc2Cl)cccc1-c1cccc(OCCCN2CCC(O)(C(=O)O)CC2)c1C` [Example 1094, (R)-1-(3-((3′-((5-((5-carbamoylpyridin-3-yl)methoxy)-4-(((2-carboxy-1-hydroxypropan-2-yl)amino)methyl)-2-chlorophenoxy)methyl)-2,2′-dimethyl-[1,1′-biphenyl]-3-yl)oxy)propyl)-4-hydroxypiperidine-4-carboxylic Acid], for the setting “value given as range class”, the IC50 is 0.21 to 10 nM.

For the compound `CCOC(=O)C1(O)CCN(CCCOc2cccc(-c3cccc(COc4cc(OCc5cncc(C#N)c5)c(CN[C@@H](CO)C(=O)O)cc4Cl)c3C)c2Cl)CC1` [Example 1095, (5-chloro-4-((2′-chloro-3′-(3-(4-(ethoxycarbonyl)-4-hydroxypiperidin-1-yl)propoxy)-2-methyl-[1,1′-biphenyl]-3-yl)methoxy)-2-((5-cyanopyridin-3-yl)methoxy)benzyl)-L-serine], the IC50 (value given as range class) was in the range of 0.21 to 10 nM.

Regarding `Cc1c(COc2cc(OCc3cncc(C#N)c3)c(CN3CCCC[C@H]3C(=O)O)cc2Cl)cccc1-c1cccc(OCCCN2CCC(O)(C(=O)O)CC2)c1Cl` [Example 1097, (S)-1-(4-((3′-(3-(4-carboxy-4-hydroxypiperidin-1-yl)propoxy)-2′-chloro-2-methyl-[1,1′-biphenyl]-3-yl)methoxy)-5-chloro-2-((5-cyanopyridin-3-yl)methoxy)benzyl)piperidine-2-carboxylic Acid], under “value given as range class”, the IC50 was in the range of 0.21 to 10 nM.

Regarding `CCOC(=O)C1(O)CCN(CCCOc2cccc(-c3cccc(COc4cc(OCc5cncc(C#N)c5)c(CN[C@](C)(CO)C(=O)O)cc4Cl)c3C)c2Cl)CC1` [Example 1098, (R)-2-((5-chloro-4-((2′-chloro-3′-(3-(4-(ethoxycarbonyl)-4-hydroxypiperidin-1-yl)propoxy)-2-methyl-[1,1′-biphenyl]-3-yl)methoxy)-2-((5-cyanopyridin-3-yl)methoxy)benzyl)amino)-3-hydroxy-2-methylpropanoic Acid], where the note is “value given as range class”, the IC50 lay in the range of 0.21 to 10 nM.

Turning to `Cc1c(COc2cc(OCc3cncc(C#N)c3)c(CN[C@](C)(CO)C(=O)O)cc2Cl)cccc1-c1cccc(OCCCN2CCC(O)(C(=O)O)CC2)c1Cl` [Example 1099, (R)-1-(3-((3′-((4-(((2-carboxy-1-hydroxypropan-2-yl)amino)methyl)-2-chloro-5-((5-cyanopyridin-3-yl)methoxy)phenoxy)methyl)-2-chloro-2′-methyl-[1,1′-biphenyl]-3-yl)oxy)propyl)-4-hydroxypiperidine-4-carboxylic Acid], the IC50 (value given as range class) is 0.21 to 10 nM.

For `CCOC(=O)C1(O)CCN(CCCOc2cccc(-c3cccc(COc4cc(OCc5cncc(C#N)c5)c(CN5CCCC[C@H]5C(=O)O)cc4Cl)c3C)c2Cl)CC1` [Example 1100, (S)-1-(5-chloro-4-((2′-chloro-3′-(3-(4-(ethoxycarbonyl)-4-hydroxypiperidin-1-yl)propoxy)-2-methyl-[1,1′-biphenyl]-3-yl)methoxy)-2-((5-cyanopyridin-3-yl)methoxy)benzyl)piperidine-2-carboxylic Acid], where the note is “value given as range class”, the IC50 was in the range of 0.21 to 10 nM.

As to `CCOC(=O)C1(CO)CCN(CCCOc2cccc(-c3cccc(COc4cc(OCc5cncc(C#N)c5)c(CN5CCCC[C@H]5C(=O)O)cc4Cl)c3C)c2Cl)C1` (stereo partly drawn) [Example 1101, (2S)-1-(5-chloro-4-((2′-chloro-3′-(3-(3-(ethoxycarbonyl)-3-(hydroxymethyl)pyrrolidin-1-yl)propoxy)-2-methyl-[1,1′-biphenyl]-3-yl)methoxy)-2-((5-cyanopyridin-3-yl)methoxy)benzyl)piperidine-2-carboxylic Acid], the IC50 (value given as range class) lay within 0.21 to 10 nM.

Consider `CCOC(=O)C1(CO)CCN(CCCOc2cccc(-c3cccc(COc4cc(OCc5cncc(C#N)c5)c(CN5CCC(CO)(C(=O)OCC)C5)cc4Cl)c3C)c2Cl)C1` (stereo not shown) [Example 1102, ethyl 1-(3-((2-chloro-3′-((2-chloro-5-((5-cyanopyridin-3-yl)methoxy)-4-((3-(ethoxycarbonyl)-3-(hydroxymethyl)pyrrolidin-1-yl)methyl)phenoxy)methyl)-2′-methyl-[1,1′-biphenyl]-3-yl)oxy)propyl)-3-(hydroxymethyl)pyrrolidine-3-carboxylate], for which the IC50 (numeric IC50) came to 2.8 nM.

For the compound `CCOC(=O)C1(CO)CCN(CCCOc2cccc(-c3cccc(COc4cc(OCc5cncc(C#N)c5)c(CN[C@](C)(CO)C(=O)O)cc4Cl)c3C)c2Cl)C1` (stereo partly drawn) [Example 1103, (2R)-2-((5-chloro-4-((2′-chloro-3′-(3-(3-(ethoxycarbonyl)-3-(hydroxymethyl)pyrrolidin-1-yl)propoxy)-2-methyl-[1,1′-biphenyl]-3-yl)methoxy)-2-((5-cyanopyridin-3-yl)methoxy)benzyl)amino)-3-hydroxy-2-methylpropanoic Acid], the IC50 (value given as range class) fell in the range of 0.21 to 10 nM.

As to `CCOC(=O)C1(CO)CCN(CCCOc2cccc(-c3cccc(COc4cc(OCc5cncc(C#N)c5)c(CN5CCC(CO)(C(=O)OCC)C5)cc4Cl)c3C)c2Cl)C1` (stereo not shown) [Example 1104, ethyl 1-(3-((2-chloro-3′-((2-chloro-5-((5-cyanopyridin-3-yl)methoxy)-4-((3-(ethoxycarbonyl)-3-(hydroxymethyl)pyrrolidin-1-yl)methyl)phenoxy)methyl)-2′-methyl-[1,1′-biphenyl]-3-yl)oxy)propyl)-3-(hydroxymethyl)pyrrolidine-3-carboxylate], for the setting “value given as range class”, the IC50 lay in the range of 10 to 100 nM.

Turning to `CC(=O)NC1CCN(CCCOc2cccc(-c3cccc(COc4cc(OCc5cncc(C#N)c5)c(CN5CCCC[C@H]5C(=O)O)cc4Cl)c3C)c2C)CC1` [Example 1105, (S)-1-(4-((3′-(3-(4-acetamidopiperidin-1-yl)propoxy)-2,2′-dimethyl-[1,1′-biphenyl]-3-yl)methoxy)-5-chloro-2-((5-cyanopyridin-3-yl)methoxy)benzyl)piperidine-2-carboxylic Acid], where the note is “value given as range class”, the IC50 was 0.21 to 10 nM.

Regarding `Cc1c(COc2cc(OCc3cncc(C#N)c3)c(CN3CCCC[C@H]3C(=O)O)cc2Cl)cccc1-c1cccc(OCCCN2CCC(CO)(C(=O)O)C2)c1Cl` (stereo partly drawn) [Example 1106, (2S)-1-(4-((3′-(3-(3-carboxy-3-(hydroxymethyl)pyrrolidin-1-yl)propoxy)-2′-chloro-2-methyl-[1,1′-biphenyl]-3-yl)methoxy)-5-chloro-2-((5-cyanopyridin-3-yl)methoxy)benzyl)piperidine-2-carboxylic Acid], for the setting “numeric IC50”, the IC50 was 1 nM.

For `Cc1c(COc2cc(OCc3cncc(C(N)=O)c3)c(CN3CCCC[C@H]3C(=O)O)cc2Cl)cccc1-c1cccc(OCCCN2CCC(CO)(C(=O)O)C2)c1Cl` (stereo partly drawn) [Example 1107, (2S)-1-(2-((5-carbamoylpyridin-3-yl)methoxy)-4-((3′-(3-(3-carboxy-3-(hydroxymethyl)pyrrolidin-1-yl)propoxy)-2′-chloro-2-methyl-[1,1′-biphenyl]-3-yl)methoxy)-5-chlorobenzyl)piperidine-2-carboxylic Acid], the IC50 (value given as range class) fell in the range of 0.21 to 10 nM.

Regarding `Cc1c(COc2cc(OCc3cncc(C#N)c3)c(CN[C@](C)(CO)C(=O)O)cc2Cl)cccc1-c1cccc(OCCCN2CCC(CO)(C(=O)O)C2)c1Cl` (stereo partly drawn) [Example 1108, 1-(3-((3′-((4-((((R)-2-carboxy-1-hydroxypropan-2-yl)amino)methyl)-2-chloro-5-((5-cyanopyridin-3-yl)methoxy)phenoxy)methyl)-2-chloro-2′-methyl-[1,1′-biphenyl]-3-yl)oxy)propyl)-3-(hydroxymethyl)pyrrolidine-3-carboxylic Acid], for the setting “value given as range class”, the IC50 was 0.21 to 10 nM.

On to `Cc1c(COc2cc(OCc3cncc(C#N)c3)c(CN3CCCC[C@H]3C(=O)O)cc2Cl)cccc1-c1cccc(OCCCN2CCC(CO)(C(=O)O)CC2)c1C` [Example 1110, (S)-1-(4-((3′-(3-(4-carboxy-4-(hydroxymethyl)piperidin-1-yl)propoxy)-2,2′-dimethyl-[1,1′-biphenyl]-3-yl)methoxy)-5-chloro-2-((5-cyanopyridin-3-yl)methoxy)benzyl)piperidine-2-carboxylic Acid], for which the IC50 (value given as range class) lay within 10 to 100 nM.

Turning to `Cc1c(COc2cc(OCc3cncc(C(N)=O)c3)c(CN3CCCC[C@H]3C(=O)O)cc2Cl)cccc1-c1cccc(OCCCN2CCC(CO)(C(=O)O)CC2)c1C` [Example 1111, (S)-1-(2-((5-carbamoylpyridin-3-yl)methoxy)-4-((3′-(3-(4-carboxy-4-(hydroxymethyl)piperidin-1-yl)propoxy)-2,2′-dimethyl-[1,1′-biphenyl]-3-yl)methoxy)-5-chlorobenzyl)piperidine-2-carboxylic Acid], the IC50 (value given as range class) lay in the range of 0.21 to 10 nM.

In the case of `Cc1c(COc2cc(OCc3cncc(C#N)c3)c(CN[C@](C)(CO)C(=O)O)cc2Cl)cccc1-c1cccc(OCCCN2CCC(CO)(C(=O)O)CC2)c1C` [Example 1112, (R)-1-(3-((3′-((4-(((2-carboxy-1-hydroxypropan-2-yl)amino)methyl)-2-chloro-5-((5-cyanopyridin-3-yl)methoxy)phenoxy)methyl)-2,2′-dimethyl-[1,1′-biphenyl]-3-yl)oxy)propyl)-4-(hydroxymethyl)piperidine-4-carboxylic Acid], the IC50 (value given as range class) fell in the range of 0.21 to 10 nM.
